Where two headings read alike, the source gives them in different places.

Broadly, the IC50 is the concentration that inhibits the measured activity by half.

Holding throughout (type): cell-based
Assay [1] deals with MRC-5 cell line. The experiment in a line: Cell viability assay for MRC-5 cell line (EZ-Cytox cytotoxicity experiment). The conditions noted are these: Homo sapiens, MRC5, 120 h, MRC-5 normal cell line, 5 days. The procedure: 4. Cell Viability Assay for MRC-5 Cell Line
(1) Culture of MRC-5 Cell Line
Passage of cultured cells was maintained within P15.
(2) Treatment of Compounds of the Present Invention
Then, it was cultured in 37° C.
(3) Cytotoxicity Experiment
CO2 incubator for 4 hours.

The test system of assay [2] is H526 cell line. Description: Cell viability assay for NCI-H526 cell line (EZ-Cytox). The conditions noted are these: Homo sapiens, NCI-H526, 120 h; H526 cells, 3-fold dilutions 3000 nM to 0.46 nM, 5 days. The procedure: (1) Culture of NCI-H526 Cell Line
(2) Treatment of Compounds of the Present Invention and Method of Cell Viability Assay
After treating the compound to each well to make the total volume of 200 μL, it was cultured in a CO2 incubator (Thermo Fisher Science, Cat. No. 4111) for 5 days.
The absorbance of the completely cultured sample was measured by setting the wavelength of a plate reader (BMG Labtech, CLARIOstar Plus) to […], and was measured after shaking for 3 minutes in a plate reader before measurement.
In Table 3, Activity represents IC50 value of each Exemplary Compound treatment group to H526 cell line (A: <30 nM, B: <50 nM, C: <100 nM, D: <200 nM, E: <400 nM).

For assay [3], the target named is T1, PLK1 (Homo sapiens, UniProt P53350).
T1 construct: endogenous in cells; host or cells: HeLa LgBit (Plk1-HiBit KI): HeLa stably expressing LgBit, with HiBit knocked in at the endogenous Plk1 locus by CRISPR/Cas9
Description: Luciferase assay for PLK1 in HeLa LgBit (Plk1-HiBit KI) cell line. The conditions noted are these: compound 300 nM, luminescence after 9 hours. The procedure:
2. Luciferase Assay for PLK1
(1) Preparation and Culture of HeLa LgBit (Plk1-HiBit KI) Cell Line
A HeLa cell line in which the LgBit vector was transfected and expressed stably was prepared. Then, after constructing gRNA and donor to express the HiBit amino acid sequence behind the C-terminal of the Plk1 gene, which was inherent in the cell, it was inserted into the cell together with a vector capable of expressing CRISPR/Cas9. Only the cells in which the insertion was completed and knock-in had progressed were selected, sub-cultured and used.
(2) Treatment of Compounds of the Present Invention and Method of Luciferase Assay
In the case of HeLa LgBit (Plk1-HiBit KI), the compounds were treated after being released after thymidine block, and the process was as follows. Thymidine (Sigma-Aldrich Cat. No. T9250-5G) was completely dissolved in DW and used in the experiment. For thymidine block, the products were treated with 2 mM of thymidine and then incubated for 24 hours. For release and chemical treatment, the medium was suctioned and washed with 1×PBS. TrypLE™ was added and incubated in 37° C. CO2 incubator for 5 min. Cells neutralized by adding complete media were counted through a counter. For each well of a 96-well culture plate (SPL), 3.3×10^4 cells and a total medium volume of 150 μL were seeded and incubated in a CO2 incubator.
Each cell line was incubated in a CO2 incubator for 18 hours, and Endurazine was added to each well to make up 4% of the total volume. After adding the compound of the present invention in a 96-well white plate (SPL) to a concentration of 300 nM, the wavelength of the plate reader (BMG Labtech, CLARIOstar Plus) was set to […], and then the luminescence was tracked in real time.
In Table 2, Activity represents the ratio of the luminescence value of each Exemplary Compound treatment group to DMSO treatment group (+++: <0.3, ++<0.6, +<0.7).
On the technique in general: The HiBiT peptide binds its large partner to form an active luciferase.

Where [4] appears, read: 3-fold dilutions 10000 nM to 1.52 nM, Exemplary Compounds, numeric values, read-out: Activity: IC50 value (nM) to MRC-5 cell line.
Where [5] appears, read: highest concentration 10000 nM, N.D. = no cytotoxicity until 10 μM, read-out: Activity: IC50 value to MRC-5 cell line, N.D. cells.

T1 sequence (P53350 whole entry): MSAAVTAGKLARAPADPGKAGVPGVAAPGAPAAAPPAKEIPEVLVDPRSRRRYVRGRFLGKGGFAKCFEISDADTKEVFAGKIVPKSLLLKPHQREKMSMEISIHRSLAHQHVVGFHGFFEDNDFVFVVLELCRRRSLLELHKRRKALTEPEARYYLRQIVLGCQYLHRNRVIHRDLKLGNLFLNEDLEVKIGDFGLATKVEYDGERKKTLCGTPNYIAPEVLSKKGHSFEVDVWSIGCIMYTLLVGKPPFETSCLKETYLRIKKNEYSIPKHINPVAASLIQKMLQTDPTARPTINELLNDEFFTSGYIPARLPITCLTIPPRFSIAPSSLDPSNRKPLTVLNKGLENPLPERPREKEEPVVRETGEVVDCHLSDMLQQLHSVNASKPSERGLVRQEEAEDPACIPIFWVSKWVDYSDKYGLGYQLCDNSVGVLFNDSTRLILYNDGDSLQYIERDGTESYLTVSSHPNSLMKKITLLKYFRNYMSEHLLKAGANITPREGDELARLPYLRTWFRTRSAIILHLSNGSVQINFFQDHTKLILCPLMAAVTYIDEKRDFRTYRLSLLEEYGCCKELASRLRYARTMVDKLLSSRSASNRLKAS

On to `COc1cc(C(=O)NC2CC3(CCN(CC4CCN(c5ccc(NC6CCC(=O)NC6=O)cc5F)CC4)CC3)C2)ccc1Nc1ncc2c(n1)N(C(C)C)CC(F)(F)C(=O)N2C` (stereo not drawn) [Compound 24, 4-((7,7-difluoro-9-isopropyl-5-methyl-6-oxo-6,7,8,9-tetrahydro-5H-pyrimido[4,5-b][1,4]diazepin-2-yl)amino)-N-(7-((1-(4-((2,6-dioxopiperidin-3-yl)amino)-2-fluorophenyl)piperidin-4-yl)methyl)-7-azaspiro[3.5]nonan-2-yl)-3-methoxybenzamide], for which the IC50 is 23200 nM in assay [1] (setting [4]) and less than 0.03 µM in assay [2]. Further, the “Activity: ratio of the luminescence value of each Exemplary Compound treatment group to DMSO treatment group” value (“Activity: ratio” for short) in assay [3] is “+++ (+++: <0.3)”.
Consider `COc1cc(C(=O)NC2CCN(C(=O)CCCNc3ccc(C(=O)NC4CCC(=O)NC4=O)cc3)CC2)c(F)cc1Nc1ncc2c(n1)N(C1CCCC1)CC(F)(F)C(=O)N2C` (stereo not drawn) [Compound 1, 4-((9-cyclopentyl-7,7-difluoro-5-methyl-6-oxo-6,7,8,9-tetrahydro-5H-pyrimido[4,5-b][1,4]diazepin-2-yl)amino)-N-(1-(4-((4-((2,6-dioxopiperidin-3-yl)carbamoyl)phenyl)amino)butanoyl)piperidin-4-yl)-2-fluoro-5-methoxybenzamide], for which the IC50 in assay [1] (setting [5]) was more than 10000 nM; in assay [2], less than 0.05 µM. Moreover, the “Activity: ratio” value in assay [3] is on record as “++ (++<0.6)”.
Consider `COc1cc(C(=O)NC2CCN(C(=O)CCN3CCN(c4ccc(NC5CCC(=O)NC5=O)cc4)CC3)CC2)ccc1Nc1ncc2c(n1)N(C1CCCC1)CC(F)(F)C(=O)N2C` (stereo not drawn) [Compound 13, 4-((9-cyclopentyl-7,7-difluoro-5-methyl-6-oxo-6,7,8,9-tetrahydro-5H-pyrimido[4,5-b][1,4]diazepin-2-yl)amino)-N-(1-(3-(4-(4-((2,6-dioxopiperidin-3-yl)amino)phenyl)piperazin-1-yl)propanoyl)piperidin-4-yl)-3-methoxybenzamide], for which the half-maximal inhibitory concentration (IC50) is more than 10000 nM in assay [1] (setting [5]) and less than 0.03 µM in assay [2]. For the same molecule, the “Activity: ratio” value in assay [3] is “+++ (+++: <0.3)”.
The corresponding values for `COc1cc(C(=O)NC2CCN(CCC3CCN(c4cccc5c4n(C)c(=O)n5C4CCC(=O)NC4=O)CC3)CC2)ccc1Nc1ncc2c(n1)N(C1CCCC1)CC(F)(F)C(=O)N2C` (stereo not drawn) [Compound 37, 4-((9-cyclopentyl-7,7-difluoro-5-methyl-6-oxo-6,7,8,9-tetrahydro-5H-pyrimido[4,5-b][1,4]diazepin-2-yl)amino)-N-(1-(2-(1-(1-(2,6-dioxopiperidin-3-yl)-3-methyl-2-oxo-2,3-dihydro-1H-benzo[d]imidazol-4-yl)piperidin-4-yl)ethyl)piperidin-4-yl)-3-methoxybenzamide] are more than 10000 nM, less than 0.05 µM and “++ (++<0.6)”.
The like results for `COc1cc(C(=O)NC2CCN(C(=O)CCN3CCN(c4cccc(N(C)C5CCC(=O)NC5=O)c4)CC3)CC2)ccc1Nc1ncc2c(n1)N(C1CCCC1)CC(F)(F)C(=O)N2C` (stereo not drawn) [Compound 15, 4-((9-cyclopentyl-7,7-difluoro-5-methyl-6-oxo-6,7,8,9-tetrahydro-5H-pyrimido[4,5-b][1,4]diazepin-2-yl)amino)-N-(1-(3-(4-(3-((2,6-dioxopiperidin-3-yl)(methyl)amino)phenyl)piperazin-1-yl)propanoyl)piperidin-4-yl)-3-methoxybenzamide] were, in that order, more than 10000 nM, less than 0.05 µM and “++ (++<0.6)”.
The corresponding values for `COc1cc(C(=O)NC2CCN(C(=O)CCN3CCN(c4cccc(NC5CCC(=O)NC5=O)c4)CC3)CC2)ccc1Nc1ncc2c(n1)N(C1CCCC1)CC(F)(F)C(=O)N2C` (stereo not drawn) [Compound 14, 4-((9-cyclopentyl-7,7-difluoro-5-methyl-6-oxo-6,7,8,9-tetrahydro-5H-pyrimido[4,5-b][1,4]diazepin-2-yl)amino)-N-(1-(3-(4-(3-((2,6-dioxopiperidin-3-yl)amino)phenyl)piperazin-1-yl)propanoyl)piperidin-4-yl)-3-methoxybenzamide] are more than 10000 nM, less than 0.03 µM and “++ (++<0.6)”.
As for `COc1cc(C(=O)NC2CC3(CCN(CC4CCN(c5c(F)cc(NC6CCC(=O)NC6=O)cc5F)CC4)CC3)C2)ccc1Nc1ncc2c(n1)N(C(C)C)CC(F)(F)C(=O)N2C` (stereo not drawn) [Compound 25, 4-((7,7-difluoro-9-isopropyl-5-methyl-6-oxo-6,7,8,9-tetrahydro-5H-pyrimido[4,5-b][1,4]diazepin-2-yl)amino)-N-(7-((1-(4-((2,6-dioxopiperidin-3-yl)amino)-2,6-difluorophenyl)piperidin-4-yl)methyl)-7-azaspiro[3.5]nonan-2-yl)-3-methoxybenz amide], the half-inhibitory concentration (IC50) in assay [1] (setting [4]) was 9240 nM; in assay [2], less than 0.03 µM. For the same molecule, the “Activity: ratio” value in assay [3] is listed as “+++ (+++: <0.3)”.
`COc1cc(C(=O)NN2CCC(CN3CCN(c4ccc(NC5CCC(=O)NC5=O)cc4Cl)CC3)CC2)ccc1Nc1ncc2c(n1)N(C(C)C)CC(F)(F)C(=O)N2C` (stereo not drawn) [Compound 19, N-(4-((4-(2-chloro-4-((2,6-dioxopiperidin-3-yl)amino)phenyl)piperazin-1-yl)methyl)piperidin-1-yl)-4-((7,7-difluoro-9-isopropyl-5-methyl-6-oxo-6,7,8,9-tetrahydro-5H-pyrimido[4,5-b][1,4]diazepin-2-yl)amino)-3-methoxybenzamide]: the IC50 is more than 10000 nM in assay [1] (setting [5]) and less than 0.05 µM in assay [2]. Also, the “Activity: ratio” value in assay [3] is “+ (+<0.7)”.
The like results for `COc1cc(C(=O)NC2CCN(C(=O)CCN3CCN(c4cccc(C(=O)NC5CCC(=O)NC5=O)c4F)CC3)CC2)ccc1Nc1ncc2c(n1)N(C1CCCC1)CC(F)(F)C(=O)N2C` (stereo not drawn) [Compound 6, 3-(4-(3-(4-(4-((9-cyclopentyl-7,7-difluoro-5-methyl-6-oxo-6,7,8,9-tetrahydro-5H-pyrimido[4,5-b][1,4]diazepin-2-yl)amino)-3-methoxybenzamido)piperidin-1-yl)-3-oxopropyl)piperazin-1-yl)-N-(2,6-dioxopiperidin-3-yl)-2-fluorobenzamide] were, in that order, more than 10000 nM, less than 0.05 µM and “++ (++<0.6)”.
The like results for `COc1cc(C(=O)NN2CCC(CCN3CCN(c4cccc(C(=O)NC5CCC(=O)NC5=O)c4)CC3)C2)ccc1Nc1ncc2c(n1)N(C1CCCC1)CC(F)(F)C(=O)N2C` (stereo not drawn) [Compound 11, 4-((9-cyclopentyl-7,7-difluoro-5-methyl-6-oxo-6,7,8,9-tetrahydro-5H-pyrimido[4,5-b][1,4]diazepin-2-yl)amino)-N-(3-(2-(4-(3-((2,6-dioxopiperidin-3-yl)carbamoyl)phenyl)piperazin-1-yl)ethyl)pyrrolidin-1-yl)-3-methoxybenzamide] were, in that order, more than 10000 nM, less than 0.03 µM and “++ (++<0.6)”.
